{
  "source": "ChEMBL document CHEMBL1140358",
  "about": "“1-Pentyl-3-phenylacetylindoles, a new class of cannabimimetic indoles” (Bioorg Med Chem Lett, 2005)",
  "key": {"Cannabinoid receptor 2 [1]": {"target": "T1, Cannabinoid receptor 2 (Homo sapiens, UniProt P34972)", "T1 sequence (P34972 whole entry)": "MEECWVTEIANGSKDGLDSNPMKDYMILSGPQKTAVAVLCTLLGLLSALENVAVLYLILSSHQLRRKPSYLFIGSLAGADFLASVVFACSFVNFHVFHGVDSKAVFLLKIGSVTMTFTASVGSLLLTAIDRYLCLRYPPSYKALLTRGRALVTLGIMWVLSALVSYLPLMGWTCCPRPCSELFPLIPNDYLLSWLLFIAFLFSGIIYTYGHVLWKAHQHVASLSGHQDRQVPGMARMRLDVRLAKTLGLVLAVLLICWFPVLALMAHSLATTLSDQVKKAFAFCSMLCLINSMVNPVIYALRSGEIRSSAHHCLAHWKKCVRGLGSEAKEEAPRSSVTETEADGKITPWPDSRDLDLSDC", "test": "Binding affinity to displace [3H]CP-55940 from cloned human CB2 receptor"}, "[2]": {"test": "Ratio of the binding affinity towards CB1 receptor to that of CB2 receptor"}, "Cannabinoid receptor 1 [3]": {"target": "T2, Cannabinoid receptor 1 (Rattus norvegicus, UniProt P20272)", "T2 sequence (P20272 whole entry)": "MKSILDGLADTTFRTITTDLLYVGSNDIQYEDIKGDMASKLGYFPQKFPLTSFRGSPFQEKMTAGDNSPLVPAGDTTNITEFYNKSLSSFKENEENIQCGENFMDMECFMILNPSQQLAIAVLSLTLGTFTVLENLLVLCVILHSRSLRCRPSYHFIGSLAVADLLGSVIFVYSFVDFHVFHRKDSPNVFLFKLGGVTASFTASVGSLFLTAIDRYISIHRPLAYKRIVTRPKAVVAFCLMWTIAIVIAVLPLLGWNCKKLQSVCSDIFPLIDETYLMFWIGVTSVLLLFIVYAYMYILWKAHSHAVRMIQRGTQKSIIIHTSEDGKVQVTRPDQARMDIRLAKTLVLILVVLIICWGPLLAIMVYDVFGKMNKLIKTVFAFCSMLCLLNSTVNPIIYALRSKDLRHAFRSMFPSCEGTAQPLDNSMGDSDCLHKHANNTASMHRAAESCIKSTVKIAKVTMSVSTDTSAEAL", "test": "Binding affinity to displace [3H]CP-55940 from CB1 receptor of rat brain"}, "Cannabinoid receptor 2 [4]": {"target": "T1, Cannabinoid receptor 2", "test": "Percent maximal effectiveness for stimulation of [35S]GTP-gamma-S, binding at CB2 receptor in presence of 3 uM CP-55940", "assay_type": "functional"}, "Cannabinoid receptor 2 [5]": {"target": "T1, Cannabinoid receptor 2", "test": "Effective concentration for stimulation of [35S]GTP-gamma-S, binding at CB2 receptor in presence of 3 uM CP-55940", "assay_type": "functional"}, "Cannabinoid receptor 1 [6]": {"target": "T2, Cannabinoid receptor 1", "test": "Effective concentration for stimulation of [35S]GTP-gamma-S binding at CB1 receptor in presence of 10 uM WIN-55212-2", "assay_type": "functional"}},
  "data": [
    {"smiles": "CCCCCn1cc(C(=O)Cc2ccccc2OC)c2ccccc21", "values": [
      {"measurement": "Ki", "setting": "Cannabinoid receptor 2 [1]", "value": 33, "unit": "nM"},
      {"measurement": "Ratio", "setting": "[2]", "value": 0.33},
      {"measurement": "Ki", "setting": "Cannabinoid receptor 1 [3]", "value": 11, "unit": "nM"}
    ]},
    {"smiles": "CCCCCn1cc(C(=O)Cc2ccc(F)cc2)c2ccccc21", "values": [
      {"measurement": "Ki", "setting": "Cannabinoid receptor 2 [1]", "value": 365, "unit": "nM"},
      {"measurement": "Ratio", "setting": "[2]", "value": 1.2},
      {"measurement": "Ki", "setting": "Cannabinoid receptor 1 [3]", "value": 422, "unit": "nM"}
    ]},
    {"smiles": "CCCCCn1c(C)c(C(=O)Cc2ccccc2C)c2ccccc21", "values": [
      {"measurement": "Ki", "setting": "Cannabinoid receptor 2 [1]", "value": 19, "unit": "nM"},
      {"measurement": "Ratio", "setting": "[2]", "value": 1.2},
      {"measurement": "Ki", "setting": "Cannabinoid receptor 1 [3]", "value": 23, "unit": "nM"}
    ]},
    {"smiles": "CCCCCn1cc(C(=O)Cc2ccccc2C)c2ccccc21", "values": [
      {"measurement": "Emax", "setting": "Cannabinoid receptor 2 [4]", "value": 47, "unit": "%"},
      {"measurement": "Ki", "setting": "Cannabinoid receptor 2 [1]", "value": 146, "unit": "nM"},
      {"measurement": "EC50", "setting": "Cannabinoid receptor 2 [5]", "value": 8.3, "unit": "nM"},
      {"measurement": "Ratio", "setting": "[2]", "value": 0.2},
      {"measurement": "EC50", "setting": "Cannabinoid receptor 1 [6]", "value": 29, "unit": "nM"},
      {"measurement": "Ki", "setting": "Cannabinoid receptor 1 [3]", "value": 29, "unit": "nM"}
    ]},
    {"smiles": "CCCCCn1c(C)c(C(=O)Cc2ccc(Cl)cc2)c2ccccc21", "values": [
      {"measurement": "Ki", "setting": "Cannabinoid receptor 2 [1]", "value": 3720, "unit": "nM"},
      {"measurement": "Ratio", "setting": "[2]", "value": 0.43},
      {"measurement": "Ki", "setting": "Cannabinoid receptor 1 [3]", "value": 1600, "unit": "nM"}
    ]},
    {"smiles": "CCCCCn1cc(C(=O)Cc2ccccc2)c2ccccc21", "values": [
      {"measurement": "Ki", "setting": "Cannabinoid receptor 2 [1]", "value": 159, "unit": "nM"},
      {"measurement": "Ratio", "setting": "[2]", "value": 0.57},
      {"measurement": "Ki", "setting": "Cannabinoid receptor 1 [3]", "value": 90, "unit": "nM"}
    ]},
    {"smiles": "CCCCCn1c(C)c(C(=O)Cc2ccccc2OC)c2ccccc21", "values": [
      {"measurement": "Ki", "setting": "Cannabinoid receptor 2 [1]", "value": 82, "unit": "nM"},
      {"measurement": "Ratio", "setting": "[2]", "value": 0.3},
      {"measurement": "Ki", "setting": "Cannabinoid receptor 1 [3]", "value": 25, "unit": "nM"}
    ]},
    {"smiles": "CCCCCn1c(C)c(C(=O)Cc2ccccc2Cl)c2ccccc21", "values": [
      {"measurement": "Ki", "setting": "Cannabinoid receptor 2 [1]", "value": 25, "unit": "nM"},
      {"measurement": "Ratio", "setting": "[2]", "value": 0.52},
      {"measurement": "Ki", "setting": "Cannabinoid receptor 1 [3]", "value": 13, "unit": "nM"}
    ]},
    {"smiles": "CCCCCn1cc(C(=O)Cc2cccc(OC)c2)c2ccccc21", "values": [
      {"measurement": "Emax", "setting": "Cannabinoid receptor 2 [4]", "value": 33.5, "unit": "%"},
      {"measurement": "Ki", "setting": "Cannabinoid receptor 2 [1]", "value": 89, "unit": "nM"},
      {"measurement": "EC50", "setting": "Cannabinoid receptor 2 [5]", "value": 24.4, "unit": "nM"},
      {"measurement": "Ratio", "setting": "[2]", "value": 0.19},
      {"measurement": "EC50", "setting": "Cannabinoid receptor 1 [6]", "value": 29.3, "unit": "nM"},
      {"measurement": "Ki", "setting": "Cannabinoid receptor 1 [3]", "value": 17, "unit": "nM"}
    ]},
    {"smiles": "CCCCCn1cc(C(=O)Cc2cccc(F)c2)c2ccccc21", "values": [
      {"measurement": "Ki", "setting": "Cannabinoid receptor 2 [1]", "value": 91, "unit": "nM"},
      {"measurement": "Ratio", "setting": "[2]", "value": 0.79},
      {"measurement": "Ki", "setting": "Cannabinoid receptor 1 [3]", "value": 72, "unit": "nM"}
    ]},
    {"smiles": "CCCCCn1cc(C(=O)Cc2ccccc2F)c2ccccc21", "values": [
      {"measurement": "Ki", "setting": "Cannabinoid receptor 2 [1]", "value": 39, "unit": "nM"},
      {"measurement": "Ratio", "setting": "[2]", "value": 0.6},
      {"measurement": "Ki", "setting": "Cannabinoid receptor 1 [3]", "value": 23, "unit": "nM"}
    ]},
    {"smiles": "CCCCCn1cc(C(=O)Cc2ccccc2Br)c2ccccc21", "values": [
      {"measurement": "Ki", "setting": "Cannabinoid receptor 2 [1]", "value": 20, "unit": "nM"},
      {"measurement": "Ratio", "setting": "[2]", "value": 0.42},
      {"measurement": "Ki", "setting": "Cannabinoid receptor 1 [3]", "value": 8.4, "unit": "nM"}
    ]},
    {"smiles": "CCCCCn1cc(C(=O)Cc2cccc(Cl)c2)c2ccccc21", "values": [
      {"measurement": "Ki", "setting": "Cannabinoid receptor 2 [1]", "value": 106, "unit": "nM"},
      {"measurement": "Ratio", "setting": "[2]", "value": 0.36},
      {"measurement": "Ki", "setting": "Cannabinoid receptor 1 [3]", "value": 38, "unit": "nM"}
    ]},
    {"smiles": "CCCCCn1cc(C(=O)Cc2ccc(Br)cc2)c2ccccc21", "values": [
      {"measurement": "Ki", "setting": "Cannabinoid receptor 2 [1]", "value": 657, "unit": "nM"},
      {"measurement": "Ratio", "setting": "[2]", "value": 1.6}
    ]},
    {"smiles": "CCCCCn1cc(C(=O)Cc2ccc(C)cc2)c2ccccc21", "values": [
      {"measurement": "Ki", "setting": "Cannabinoid receptor 2 [1]", "value": 570, "unit": "nM"},
      {"measurement": "Ratio", "setting": "[2]", "value": 0.31},
      {"measurement": "Ki", "setting": "Cannabinoid receptor 1 [3]", "value": 179, "unit": "nM"}
    ]},
    {"smiles": "CCCCCn1c(C)c(C(=O)Cc2cccc(OC)c2)c2ccccc21", "values": [
      {"measurement": "Ki", "setting": "Cannabinoid receptor 2 [1]", "value": 84, "unit": "nM"},
      {"measurement": "Ratio", "setting": "[2]", "value": 0.74},
      {"measurement": "Ki", "setting": "Cannabinoid receptor 1 [3]", "value": 62, "unit": "nM"}
    ]},
    {"smiles": "CCCCCn1cc(C(=O)Cc2ccc(Cl)cc2)c2ccccc21", "values": [
      {"measurement": "Ki", "setting": "Cannabinoid receptor 2 [1]", "value": 498, "unit": "nM"},
      {"measurement": "Ratio", "setting": "[2]", "value": 0.78},
      {"measurement": "Ki", "setting": "Cannabinoid receptor 1 [3]", "value": 389, "unit": "nM"}
    ]},
    {"smiles": "CCCCCn1c(C)c(C(=O)Cc2cccc(F)c2)c2ccccc21", "values": [
      {"measurement": "Ki", "setting": "Cannabinoid receptor 2 [1]", "value": 182, "unit": "nM"},
      {"measurement": "Ratio", "setting": "[2]", "value": 2.4},
      {"measurement": "Ki", "setting": "Cannabinoid receptor 1 [3]", "value": 430, "unit": "nM"}
    ]},
    {"smiles": "CCCCCn1cc(C(=O)Cc2ccc(OC)cc2)c2ccccc21", "values": [
      {"measurement": "Ki", "setting": "Cannabinoid receptor 2 [1]", "value": 444, "unit": "nM"},
      {"measurement": "Ratio", "setting": "[2]", "value": 2.4},
      {"measurement": "Ki", "setting": "Cannabinoid receptor 1 [3]", "value": 1060, "unit": "nM"}
    ]},
    {"smiles": "CCCCCn1c(C)c(C(=O)Cc2ccc(OC)cc2)c2ccccc21", "values": [
      {"measurement": "Ki", "setting": "Cannabinoid receptor 2 [1]", "value": 645, "unit": "nM"},
      {"measurement": "Ratio", "setting": "[2]", "value": 2.6},
      {"measurement": "Ki", "setting": "Cannabinoid receptor 1 [3]", "value": 1680, "unit": "nM"}
    ]},
    {"smiles": "CCCCCn1c(C)c(C(=O)Cc2cccc(Cl)c2)c2ccccc21", "values": [
      {"measurement": "Ki", "setting": "Cannabinoid receptor 2 [1]", "value": 138, "unit": "nM"},
      {"measurement": "Ratio", "setting": "[2]", "value": 0.85},
      {"measurement": "Ki", "setting": "Cannabinoid receptor 1 [3]", "value": 117, "unit": "nM"}
    ]},
    {"smiles": "CCCCCn1c(C)c(C(=O)Cc2ccccc2Br)c2ccccc21", "values": [
      {"measurement": "Ki", "setting": "Cannabinoid receptor 2 [1]", "value": 29, "unit": "nM"},
      {"measurement": "Ratio", "setting": "[2]", "value": 0.52},
      {"measurement": "Ki", "setting": "Cannabinoid receptor 1 [3]", "value": 15, "unit": "nM"}
    ]},
    {"smiles": "CCCCCn1cc(C(=O)Cc2ccccc2Cl)c2ccccc21", "values": [
      {"measurement": "Ki", "setting": "Cannabinoid receptor 2 [1]", "value": 7, "unit": "nM"},
      {"measurement": "Ratio", "setting": "[2]", "value": 1.1},
      {"measurement": "Ki", "setting": "Cannabinoid receptor 1 [3]", "value": 8, "unit": "nM"}
    ]},
    {"smiles": "CCCCCn1c(C)c(C(=O)Cc2ccc(F)cc2)c2ccccc21", "values": [
      {"measurement": "Ki", "setting": "Cannabinoid receptor 2 [1]", "value": 781, "unit": "nM"},
      {"measurement": "Ratio", "setting": "[2]", "value": 3.7},
      {"measurement": "Ki", "setting": "Cannabinoid receptor 1 [3]", "value": 2860, "unit": "nM"}
    ]},
    {"smiles": "CCCCCn1c(C)c(C(=O)Cc2ccc(C)cc2)c2ccccc21", "values": [
      {"measurement": "Ki", "setting": "Cannabinoid receptor 2 [1]", "value": 1350, "unit": "nM"},
      {"measurement": "Ratio", "setting": "[2]", "value": 0.55},
      {"measurement": "Ki", "setting": "Cannabinoid receptor 1 [3]", "value": 746, "unit": "nM"}
    ]},
    {"smiles": "CCCCCn1c(C)c(C(=O)Cc2ccccc2F)c2ccccc21", "values": [
      {"measurement": "Ki", "setting": "Cannabinoid receptor 2 [1]", "value": 76, "unit": "nM"},
      {"measurement": "Ratio", "setting": "[2]", "value": 0.51},
      {"measurement": "Ki", "setting": "Cannabinoid receptor 1 [3]", "value": 39, "unit": "nM"}
    ]},
    {"smiles": "CCCCCn1c(C)c(C(=O)Cc2ccccc2)c2ccccc21", "values": [
      {"measurement": "Ki", "setting": "Cannabinoid receptor 2 [1]", "value": 180, "unit": "nM"},
      {"measurement": "Ratio", "setting": "[2]", "value": 0.69},
      {"measurement": "Ki", "setting": "Cannabinoid receptor 1 [3]", "value": 124, "unit": "nM"}
    ]},
    {"smiles": "CCCCCn1c(C)c(C(=O)Cc2ccc(Br)cc2)c2ccccc21", "values": [
      {"measurement": "Ki", "setting": "Cannabinoid receptor 2 [1]", "value": 2680, "unit": "nM"},
      {"measurement": "Ratio", "setting": "[2]", "value": 1.2}
    ]}
  ]
}
